The subject of one data set is P-gp.
Test: not given
The conditions noted are these: metabolites with favorable scores reassigned to the binders set; cited from earlier work.
In the case of `CC(C)CCC[C@@H](C)[C@H]1CC[C@H]2[C@@H]3CC=C4C[C@@H](O)CC[C@]4(C)[C@H]3CC[C@]12C` [Cholesterol**, Cholesterol], the “Reported interaction with P-gp” value is given as “interact with P-gp”.

For `CC(=O)[C@H]1CC[C@H]2[C@@H]3CCC4=CC(=O)CC[C@]4(C)[C@H]3CC[C@]12C` [Progesterone**, Progesterone], the “Reported interaction with P-gp” value was “interact with P-gp”. With `NC(Cc1cc(I)c(Oc2cc(I)c(O)c(I)c2)c(I)c1)C(=O)O` (stereo not shown) [Thyroxine**, Thyroxine], the “Reported interaction with P-gp” value is recorded as “interact with P-gp”.

Turning to `C=C1CC[C@H](O)C/C1=C/C=C1\CCC[C@]2(C)[C@@H]([C@H](C)CCCC(C)C)CC[C@@H]12` [Vitamin D3**, Vitamin D3], the “Reported interaction with P-gp” value is listed as “interact with P-gp”.

A further data set has as its system P-gp.
Test: not given
Details: method as in Aller paper [29]. The conditions noted are these: reported value; ref Aller paper [29]; read-out: IC50 for inhibition of verapamil-stimulated ATPase activity; cited from earlier work.
In the case of QZ59-RRR, the IC50 is 4.8 ± 2.6 µM.

System in the next data set: not listed separately
Put plainly: in vitro. The settings on record: dog, MDCK-MDR1, pH 7.4.
Experimental: (§1) Permeability measurements were performed by Wuxi Apptec, using the following procedures.
(§2) Test compounds were diluted with the transport buffer (HBSS, pH 7.4) from a 10 mM stock solution to a concentration of 2 µM and applied to the apical (A) or basolateral (B) side of the cell monolayer. […] In addition, the efflux ratio of each compound was also determined. Test and reference compounds were quantified by LC-MS/MS analysis based on the peak area ratio of analyte/IS.
(§3) The apparent permeability coefficient Papp (cm/s) was calculated using the equation: [drawing 1] where dCr/dt is the cumulative concentration of compound in the receiver chamber as a function of time (µM/s); Vr is the solution volume in the receiver chamber (0.075 mL on the apical side, 0.25 mL on the basolateral side); A is the surface area for the transport, i.e. 0.084 cm^2 for the area of the monolayer; C0 is the initial concentration in the donor chamber (µM).
(§4) The efflux ratio (ER) was calculated using the equation: [drawing 2]
(§5) Percent recovery was calculated using the equation: [drawing 3] Where Vd is the volume in the donor chambers (0.075 mL on the apical side, 0.25 mL on the basolateral side); Cd and Cr are the final concentrations of transport compound in donor and receiver chambers, respectively. Cc is the compound concentration in the cell lysate solution (µM), and Vc is the volume of insert well (0.075 mL in this assay).
(§6) Permeability determinations were performed in triplicate and are reported as mean values.
Regarding `N#CCNC(=O)[C@H](Cc1c[nH]cn1)NC(=O)OCc1ccccc1` [Compound 9], the basolateral-to-apical permeability (Papp B→A) at 150 min, 2 µM is 2.9 ×10⁻⁶ cm/s and the apparent permeability (Papp) at 150 min, 2 µM is 0.5 ×10⁻⁶ cm/s.

For the next data set, the system named is P-gp.
Test: not given
The conditions noted are these: Table S4, Doan et al. dataset; both assays positive or both negative; cited from earlier work.
Regarding `OC(CCN1CCCCC1)(c1ccccc1)C1CC2C=CC1C2` [(R)-Biperiden], the P-gp interaction result is listed as “N”. Take `COc1ccc2c(c1)N(C[C@H](C)CN(C)C)c1ccccc1S2` [(R)-Levomeprazine]: the P-gp interaction entry is “Y”. With `c1ccc2c(c1)Sc1ccccc1N2C[C@H]1CN2CCC1CC2` [(R)-Mequitazine], the P-gp interaction result is “Y”. As to `COCCc1ccc(OC[C@H](O)CNC(C)C)cc1` [(R)-Metoprolol], the P-gp interaction entry is “N”. With `C=CCOc1ccccc1OC[C@H](O)CNC(C)C` [(R)-Oxprenolol], the P-gp interaction result was “N”. Take `OC(CCN1CCCCC1)(c1ccccc1)C1CC2C=CC1C2` [(S)-Biperiden]: the P-gp interaction result is on record as “N”. In the case of `c1ccc2c(c1)Sc1ccccc1N2CC1CN2CCC1CC2` [(S)-Mequitazine], the P-gp interaction entry is on record as “Y”. For `COCCc1ccc(OC[C@@H](O)CNC(C)C)cc1` [(S)-Metoprolol], the P-gp interaction result is reported as “N”. `C=CCOc1ccccc1OC[C@@H](O)CNC(C)C` [(S)-Oxprenolol]: the P-gp interaction entry is given as “N”. For the compound `NC12CC3CC(CC(C3)C1)C2` [Amantadine], the P-gp interaction entry is given as “N”. `NC(=O)N1c2ccccc2C=Cc2ccccc21` [Carbamazepine]: the P-gp interaction result is “N”. Take `Clc1cccc(Cl)c1N=C1NCCN1` [Clonidine]: the P-gp interaction result was “N”.

For `N=C(N)N/N=C/c1c(Cl)cccc1Cl` [Guanabenz], the P-gp interaction entry is “N”. On to `N=C(N)NC(=O)Cc1c(Cl)cccc1Cl` [Guanfacine], for which the P-gp interaction result is recorded as “N”. For the compound `CN(C)CCCN1c2ccccc2CCc2ccccc21` [Imipramine], the P-gp interaction entry is “N”.

Turning to `COc1ccc2c(c1)c(CC(=O)O)c(C)n2C(=O)c1ccc(Cl)cc1` [Indomethacin], the P-gp interaction result was “N”.

As for `OC[C@@H](O)[C@@H](O)[C@H](O)[C@H](O)CO` [Mannitol], the P-gp interaction result was “N”. On to `CNC(C)(C)Cc1ccccc1` [Mephentermine], for which the P-gp interaction entry is reported as “N”.

As for `C=CCN1CC[C@]23c4c5ccc(O)c4O[C@H]2C(=O)CC[C@@]3(O)[C@H]1C5` [Naloxone], the P-gp interaction result is reported as “N”. Turning to `Cc1c(O)cccc1C(=O)N[C@@H](CSc1ccccc1)[C@H](O)CN1C[C@H]2CCCC[C@H]2C[C@H]1C(=O)NC(C)(C)C` [Nelfinavir], the P-gp interaction result is given as “Y”.

For the compound `CNCCCC1c2ccccc2C=Cc2ccccc21` [Protriptylene], the P-gp interaction result is reported as “Y”.

As for `CC(C)(C)NC(=O)[C@@H]1C[C@@H]2CCCC[C@@H]2CN1C[C@@H](O)[C@H](Cc1ccccc1)NC(=O)[C@H](CC(N)=O)NC(=O)c1ccc2ccccc2n1` [Saquinavir], the P-gp interaction entry is “Y”. On to `O=C(O)c1cc(/N=N/c2ccc(S(=O)(=O)Nc3ccccn3)cc2)ccc1O` [Sulfasalazine_a*, Sulfasalazine], for which the P-gp interaction entry was “N”. With `O=C(O)c1cc(/N=N/c2ccc(S(=O)(=O)Nc3ccccn3)cc2)ccc1O` [Sulfasalazine_b*, Sulfasalazine], the P-gp interaction result is “N”. Turning to `CNS(=O)(=O)Cc1ccc2[nH]cc(CCN(C)C)c2c1` [Sumatriptan], the P-gp interaction entry is listed as “N”. As for `CN(C)C/C=C(/c1ccc(Br)cc1)c1cccnc1` [Zimeldine], the P-gp interaction entry is on record as “N”. On to (S)-Levomeprazine, for which the P-gp interaction result was “Y”.

The data set is the same for the next values; noted with them: Table S5, Doan et al. dataset; both assays positive or both negative; cited from earlier work.
On to `O=C(O)c1cc(/N=N/c2ccc(S(=O)(=O)Nc3ccccn3)cc2)ccc1O` [Sulfasalazine], for which the P-gp interaction entry is recorded as “N”.

The same data set, now with this note: not told; cited from earlier work.
`CN(C)CC[C@H](c1ccc(Cl)cc1)c1ccccn1` [(R)-Chlorpheniramine]: the P-gp interaction entry is “N”. Consider `CN(C)CCO[C@](C)(c1ccccc1)c1ccccn1` [(R)-Doxylamine], for which the P-gp interaction entry is recorded as “N”. As to `CN[C@@]1(c2ccccc2Cl)CCCCC1=O` [(R)-Ketamine], the P-gp interaction entry is on record as “N”. For `CN(C)CC[C@H](c1ccccc1)c1ccccn1` [(R)-Pheniramine], the P-gp interaction result is given as “N”. Consider `CC(=O)C[C@H](c1ccccc1)c1c(O)c2ccccc2oc1=O` [(R)-Warfarin], for which the P-gp interaction result is listed as “N”. Turning to `CC(C)(C)c1ccc([C@H](O)CCCN2CCC(C(O)(c3ccccc3)c3ccccc3)CC2)cc1` [(R)-terfenadine], the P-gp interaction entry is listed as “Y”.

Regarding `CN(C)CC[C@@H](c1ccc(Cl)cc1)c1ccccn1` [(S)-Chlorpheniramine], the P-gp interaction result is given as “N”. `CN(C)CCO[C@@](C)(c1ccccc1)c1ccccn1` [(S)-Doxylamine]: the P-gp interaction result is on record as “N”.

Regarding `CN[C@]1(c2ccccc2Cl)CCCCC1=O` [(S)-Ketamine], the P-gp interaction result is given as “N”. As for `CN(C)CC[C@@H](c1ccccc1)c1ccccn1` [(S)-Pheniramine], the P-gp interaction entry was “N”. Take `CC(=O)C[C@@H](c1ccccc1)c1c(O)c2ccccc2oc1=O` [(S)-Warfarin]: the P-gp interaction entry is “N”. With `CC(C)(C)c1ccc([C@@H](O)CCCN2CCC(C(O)(c3ccccc3)c3ccccc3)CC2)cc1` [(S)-terfenadine], the P-gp interaction entry is reported as “Y”.

As to `Cc1cc(=O)n(-c2ccccc2)n1C` [Antipyrine], the P-gp interaction result is “N”. As to `COc1ccc(CCN2CCC(Nc3nc4ccccc4n3Cc3ccc(F)cc3)CC2)cc1` [Astemizole], the P-gp interaction result is reported as “Y”. `CN(C)C(=O)C(CCN1CCC(O)(c2ccc(Cl)cc2)CC1)(c1ccccc1)c1ccccc1` [Loperamide]: the P-gp interaction result is on record as “Y”. For the compound `CCCC(C)(COC(N)=O)COC(N)=O` [Meprobamate], the P-gp interaction entry is “N”. For the compound `O=C1CN=C(c2ccccc2)c2cc([N+](=O)[O-])ccc2N1` [Nitrazepam], the P-gp interaction result was “N”. In the case of `Nc1c2c(nc3ccccc13)CCCC2` [Tacrine], the P-gp interaction entry is listed as “N”.

A further data set has as its system MDCK-MDR1 cells. The experiment in a line: MDCK-MDR1 monolayer permeability assay. The conditions noted are these: 2 µM, 150 min.
Experimental: as §1, §2, §3, §4, §5, §6
As to `N#CCNC(=O)[C@H](Cc1c[nH]cn1)NC(=O)OCc1ccccc1` [Compound 9], the “Mean Efflux Ratio” value was 5.8.

The data set is the same for the next values; noted with them: 2 µM, 150 min, 37°C, pH 7.4, triplicate mean.
As to `N#CCNC(=O)[C@H](Cc1c[nH]cn1)NC(=O)OCc1ccccc1` [Compound 9], the “Mean Papp A to B” value is recorded as 0.51 10^−6 cm/s.

In general, IC50 refers to the concentration at which inhibition is half-maximal. For orientation: Papp B→A means how fast a substance crosses the layer from the basolateral side. One may read the Papp as the rate of passage across a membrane or cell layer, normalised by area and donor concentration.

The values are drawn from paper PMC3121697, “Predicting Binding to P-Glycoprotein by Flexible Receptor Docking” (PLoS Computational Biology, 2011).
